Laboratory results reported in PMC10060354, “Discovery of a small molecule ligand of FRS2 that inhibits invasion and tumor growth” (Cellular Oncology, 2022).
“And” between values parts separate entries of the source, which are not always exact repeats. Equal values may be shown once. Read-outs that look alike come from different tables or passages of the source.

Assays:
[1] = molecular target: T1, GB1-FRS2_PTB:FGFR_PEP (Homo sapiens, UniProt Q8WU20); assay: nanoDSF competition assay with the FGFR peptide; type: binding; conditions: PTB domain:FGFR peptide 1:5; 500 μM compound
T1 construct: FRS2-PTB 11-140aa; 6xHis (N); made in house; host or cells: E. coli BL21 (DE3) for the protein
T1 sequence (Q8WU20 11-140): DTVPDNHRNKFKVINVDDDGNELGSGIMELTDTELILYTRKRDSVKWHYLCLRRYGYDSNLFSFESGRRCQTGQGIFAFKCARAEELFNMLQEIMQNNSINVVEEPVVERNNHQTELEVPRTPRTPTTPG
Description: (§1) Purified FRS2_PTB or GB1_FRS2_PTB protein tagged with 6 × Histidine residues and the B1 immunoglobulin binding domain of the streptococcal protein G (GB1) were diluted in the protein buffer (100 mM sodium phosphate, 50 mM NaCl, 0.5 mM EDTA, 50 mM arginine, 1 mM TCEP, pH 7.0) to 30 μM, GB-1 to 40 μM. FGFR_PEP, compounds or paracetamol (PARA) as negative control were dissolved at 1 mM in the protein buffer supplemented with 10% DMSO. Compound and protein were mixed at 1:1 volume ratio yielding a final concentration of 15 μM and 20 μM for FRS2_PTB/GB1_FRS2_PTB and GB1, respectively, as well as 500 μM for FGFR_PEP or compounds. The mixture was incubated for 15 min. Each compound was measured in triplicates. Protein controls were measured in six replicates in the beginning. The quality of the screen was assessed by the Z-factor. nanoDSF validation studies were performed on a Prometheus® system in high sensitivity capillaries. Samples were heated with 1 °C/min from 20 to 95 °C. Each compound was measured in triplicates. GB1-FRS2_PTB and GB1 were diluted in the protein buffer (100 mM sodium phosphate, 50 mM NaCl, 0.5 mM EDTA, 50 mM arginine, 1 mM TCEP, pH 7.0) to 30 μM. Compounds 3.3, 3.4, 3.18 as well as the 3.18 analogues were dissolved in 100% DMSO at 50 or 100 mM and further diluted to 1 mM with a final […]. FGFR_PEP was dissolved at 1 mM in the protein buffer supplemented with 10% DMSO. Compound and protein were mixed at 1:1 volume ratio yielding final concentrations of 15 μM protein and 500 μM for the compounds. FGFR_PEP was measured against both GB1-FRS2_PTB and GB1, all other compounds only against GB1-FRS2_PTB. The mixture was incubated for 15 min before measurement. The data was analyzed for both the ratio of signals at 330 and 350 nm and at 350 nm alone. For the competition assays, the PTB domain and the FGFR peptide were mixed at a 1:5 ratio, and ligand competition was assayed in the presence of 500 μM compound.

[2] = Solubility at the concentration required for the biophysical assays; type: physicochemical; conditions: 5% DMSO
[3] = system: DAOY cells; assay: SIA, EGF-induced cell invasion; type: cell-based, human; conditions: 10 µM
Description: (§2) 1000—2500 cells/well in 100 μl were seeded in 96 well Corning® Spheroid microplate (CLS4520, Sigma-Aldrich) or in cell-repellent 96 well microplate (650,790, Greiner Bio-one). SIA and analysis was performed as described before. In brief: After spheroid formation (24 – 72 h after seeding), 70 µl medium was removed and replaced with the collagen mixture (2.5 mg/ml Pure Col Collagen I (Advanced Biomatrix)), DMEM 1x (from 10 × stock, Sigma, D2429) and 0.4% Sodium bicarbonate (Sigma, S8761)), resulting in a final collagen concentration of 1.75 mg/ml. Embedded spheroids were stimulated with bFGF (100 ng/ml if not otherwise stated), HGF (30 ng /ml) or EGF (20 ng/ml) and distance of invaded cells quantified 24 – 48 h after embedding. Compounds and BGJ398 were added in Dimethylsulfoxid (DMSO) and corresponding DMSO concentrations were used in control samples.

[4] = system: DAOY cells; assay: Spheroid invasion assay (SIA), bFGF-induced collagen I invasion; type: cell-based, human; conditions: DAOY cells, n = 3 technical replicas, read-out: EC50 for the inhibition of bFGF-induced collagen I invasion
Description: as §2

[5] = molecular target: T2, FRS2_PTB (Homo sapiens, UniProt Q8WU20); assay: nano differential scanning fluorimetry (nanoDSF); type: binding; conditions: 500 μM ligand
T2 construct: FRS2-PTB 11-140aa; 6xHis; made in house; host or cells: E. coli BL21 (DE3)
T2 sequence (Q8WU20 11-140): T1 sequence (Q8WU20 11-140)
Description: Assay establishment and pilot nanoDSF experiments were performed with a Tycho® system. Each experiment was performed by mixing the protein and ligand of interest at a 1:1 ratio and subsequent incubation for 15–30 min at room temperature. Controls of protein alone and ligand alone in identical buffer compositions as for the complex were measured accordingly. The temperature gradient ranged from 35 to 95 °C, and the heating rate was 30 °C/min. Inflection temperatures TI were calculated from the first derivative of the spectra obtained at the ratio of the signals at 350 nm to those at 330 nm. ΔTI of a complex was calculated as following: ΔTI,complex = TI,complex – TI,protein.
The in-built software version 1.1.5.668 (NanoTemper Technologies, Munich, Germany) and Microsoft Office Excel 365 (Microsoft Corp., Seattle, USA) was used for data analysis. Data was plotted with GraphPad Prism vers. 8.3.0 (GraphPad Software, San Diego, USA).
as §1, with “For the competition assays, the PTB domain and the FGFR peptide were mixed at a 1:5 ratio, and ligand competition was assayed in the presence of 500 μM compound.” left out

[6] = molecular target: T3, GB1-FRS2-PTB (Homo sapiens, UniProt Q8WU20); assay: Microscale thermophoresis (MST); type: binding
T3 construct: FRS2-PTB 11-140aa; 6xHis (N); made in house; host or cells: E. coli BL21 (DE3)
T3 sequence (Q8WU20 11-140): T1 sequence (Q8WU20 11-140)
Description: Protein labeling for MST was performed with the 2nd Generation BLUE-NHS dye. GB1-FRS2_PTB- was labelled at 20 μM with 60 μM dye and incubated for 30 min in the dark at room temperature. The labelling was performed in the protein buffer without arginine supplementation. It was rebuffered to protein buffer (100 mM sodium phosphate, 50 mM NaCl, 0.5 mM EDTA, 50 mM arginine, 1 mM TCEP, pH 7.0). The dye was subsequently removed by gravitational flow chromatography and the protein concentration determined by UV-spectroscopy. The assay was established with the FGFR_PEP. […] A total volume of 10 μl of 50 nM labelled protein was added to 10 μl of the peptide dilution series for a final labelled protein concentration of 25 nM. The samples were incubated for 15 min at RT. […] Temperature was set to 25 °C. Each measurement was repeated twice. The interaction was measured in duplicates for the non-DMSO-supplemented buffer and in triplicates for DMSO-supplemented buffer. […] The samples were incubated for 15 min, and MST assessed as described above. Each measurement was repeated twice. The interaction was measured in two independent duplicates. […] The mixture was then measured for their initial fluorescence once. MST-experiments were performed with MO.Control vers. 1.6 (NanoTemper Technologies, Munich, Germany) and data analyzed with MO.Analysis vers. 2.3 (NanoTemper Technologies, Munich, Germany). Data was plotted with GraphPad Prism vers. 8.3.0 (GraphPad Software, San Diego, USA).

| Compound | nanoDSF competition with FGFR peptide (result in words) [1] | solubility for biophysical assays (result in words) [2] | effect on EGF-induced cell invasion (result in words) [3] | EC50 [4] [µM] | EC50 ([4]; Homo sapiens, Daoy) [µM] | nanoDSF shift of the inflection point of the melting curve (ΔTm) [5] [°C] | Kd ([6]; GB1-FRS2_PTB, read-out: KD, initial fluorescence change analysis) | binding by MST trace analysis (result in words) ([6]; signal:noise ratio > 5 counts as binding) |
| --- | --- | --- | --- | --- | --- | --- | --- | --- |
| O=[N+]([O-])c1c(Cl)cc(O)c2c1C1C=CCC1C(c1ccc(Br)cc1)N2 (stereo not drawn) [Compound 2] | negative shift in compound-mixed samples | soluble in 5% DMSO | – | – | – | – | – | – |
| O=[N+]([O-])c1c(Cl)cc(O)c2c1C1C=CCC1C(c1ccccc1)N2 (stereo not drawn) [Compound 9] | negative shift in compound-mixed samples | soluble in 5% DMSO | only moderately reduced | – | – | – | – | – |
| O=[N+]([O-])c1c(Cl)cc(O)c2c1C1C=CCC1C(C1CC=CCC1)N2 (stereo not drawn) [Compound 3.18] | negative shift in compound-mixed samples | – | only moderately reduced | 1.29 | 1.29 | < -2 | 110 µM and 140 µM and 110 to 140 µM | no binding was detected |
